The conditions of data set [1]: used in the same molar amount; cited from earlier work.
The conditions of data set [2]: storage at 50° C. for 6 weeks; cited from earlier work.
Data set [3] is described as follows: Solubility of lysine: suspension stirred 1 week at constant temperature, lysine analysed in supernatant. Type of data set: physicochemical. Particulars: 20° C.; chloride ions at a molar ratio of 27% or less to the lysine (hydrochloric acid). The protocol: 70% lysine base solution obtained under (1) above, 35% hydrochloric acid and deionized water were used in the amounts shown in Table 1 below, respectively, to prepare 7 kinds of solutions. In these solutions, the lysine base crystals obtained under (2) above and the lysine hydrochloride.2H2O crystals obtained under (3) above were suspended respectively in the amounts shown in the same table, and then stirred for 1 week during which the temperature was kept at 20° C.
The crystals were removed from these suspensions, and the concentration of the chloride ions in each of the remaining solutions was analyzed by an ion chromatographic analyzer “Yokokawa IC7000 model”, and the concentration of lysine therein was analyzed by an amino acid analyzer “Hitachi L-8500 model”. […]
The crystals were removed from these suspensions, and the concentration of the chloride ions in each of the resulting solutions (supernatants) was analyzed by the ion chromatographic analyzer “Yokokawa IC7000 model”, and the concentration of the lysine therein was analyzed by the amino acid analyzer “Hitachi L-8500 model”. […]

The structures appear in SMILES notation.

Turning to `Cl.NCCCC[C@H](N)C(=O)O` [L-lysine monohydrochloride], the “action in a feeding experiment” value in data set [1] was “same action”. As to `NCCCC[C@H](N)C(=O)O` [crystalline L-lysine, L-lysine], in data set [2], the coloration after storage entry was “evidently colored” and the “formation of by-products after storage” value is recorded as “confirmed”.

As for `NCCCC[C@H](N)C(=O)O` [lysine], the “solubility of lysine compared with the case where the chloride ions are not contained (FIG. 1)” value in data set [3] is reported as “increased”.
